Assay results as given in US8338475B2, “Anti-proliferative pharmaceutical composition” (BioCis Pharma Oy, priority 2003, dated 2012).
Several values for one entry are separate records, joined by “and”; a condition that tells them apart may be missing. Equal entries are not always repeated.

What was measured:
[1] = system: human polymorphonuclear neutrophils; settings: extracellular pH range 6.1 to 7.0; patent application US2006035973; cited from earlier work
[2] = system: HSF (skin fibroblast); assay: Proliferation assay (CellTiter 96), HSF cells; type: cell-based, human; settings: Homo sapiens, Skin fibroblast, pH 6.5, 44 h, cis-UCA 10 mM, CPT 2 μM, 15,000 cells per 100 μl, read-out: Inhibition of proliferation (mean percentage inhibition ± SD compared with untreated control)
Source text: (§1) Transformed tumour cell lines WM 266-4 and A2058 (cutaneous melanoma), HT-1080 (epithelial fibrosarcoma), HeLa (epithelial adenocarcinoma of cervix), HK293 (kidney epithelial cells) and non-transformed cell line HSF (skin fibroblast from a healthy volunteer donor) of human origin have been described earlier (Li et al. 2003). The K562 (chronic myelogenous leukemia) cells were purchased from American Type Culture Collection.
(§2) The cells were maintained in logarithmic growth phase in IMDM medium (Invitrogen, Paisley, UK) supplemented with 10% fetal calf serum and antibiotics in a humidified incubator at +37° C., 5% CO2. The adherent cells lines were harvested for experiments with 0.25% trypsin-EDTA in PBS for 5 min and then resuspended and washed in medium. After counting of viable cells, 15,000 to 75,000 cells were transferred into flat-bottom 96-well cell culture plates in a volume of 100 or 150 μl.
(§3) The proliferation activity of cultured cell lines was quantified in flat-bottom 96-well plates with a modified colorimetric assay based on a tetrazolium derivative (CellTiter 96 Aqueous One Solution Cell Proliferation Assay, Promega). The cells were cultured in the presence of camptothecin and/or cis-UCA for 20 to 92 h, then the proliferation reagent was added for 2 h, and the absorbance at 490 nm was measured in a plate reader. […]

[3] = system: WM 266-4 (cutaneous melanoma); assay: Proliferation assay (CellTiter 96), WM266-4 cells; type: cell-based, human; settings: Homo sapiens, WM 266-4, pH 6.5, 44 h, cis-UCA 10 mM, CPT 2 μM, 15,000 cells per 100 μl, read-out: Inhibition of proliferation (mean percentage inhibition ± SD compared with untreated control)
Description: (§4) The cells were cultured in triplicate with or without 2 μM camptothecin (CPT) or 10 mM cis-UCA in a density of 15,000 cells per […]. A, Cells taken from normal pH 7.4 cultures to test conditions at pH 6.5. B, Cells cultured in low pH 6.7 adaptation medium for 3 d, then tested at pH 6.5. C, Cells cultured and tested at pH 7.4.
as §1, §2
(§5) The proliferation activity of cultured cell lines was quantified in flat-bottom 96-well plates with a modified colorimetric assay based on a tetrazolium derivative (CellTiter 96 Aqueous One Solution Cell Proliferation Assay, Promega). The cells were cultured in the presence of camptothecin and/or cis-UCA for 20 to 92 h, then the proliferation reagent was added for 2 h, and the absorbance at 490 nm was measured in a plate reader. Blank absorption values in wells containing medium without cells were subtracted before comparison analysis.
(§6) The cell lines were tested in a 44-h culture at pH 6.5 with or without 2 μM camptothecin and 10 mM cis-UCA at 15,000 cells per 100 μl total volume. […] In order to further characterise the effective anti-proliferative concentration range of cis-UCA, proliferation was measured in a 44-h assay at pH 6.5 with cis-UCA concentration ranging from 30 μM to 30 mM.

[4] = system: A2058 (cutaneous melanoma); assay: Proliferation assay (CellTiter 96), A2058 cells; type: cell-based, human; settings: Homo sapiens, pH 6.5, 44 h, cis-UCA 10 mM, CPT 2 μM, 15,000 cells per 100 μl, read-out: Inhibition of proliferation (mean percentage inhibition ± SD compared with untreated control)
Description: as §4
Proliferation was measured in a 44-h assay at pH 6.5 with 30 μM to 30 mM cis-UCA and 2 μM camptothecin. Both proliferation (A) and calculated percentage inhibition data (B) are presented.
as §1, §2, §5, §6

[5] = system: HK293 (kidney epithelial cells); assay: Proliferation assay (CellTiter 96), HK293 cells; type: cell-based, human; settings: Homo sapiens, Epithelial cell, pH 6.5, 44 h, cis-UCA 10 mM, CPT 2 μM, 15,000 cells per 100 μl, read-out: Inhibition of proliferation (mean percentage inhibition ± SD compared with untreated control)
Source text: as §1, §2, §3

[6] = system: HeLa (epithelial adenocarcinoma of cervix); assay: Proliferation assay (CellTiter 96), HeLa cells; type: cell-based, human; settings: Homo sapiens, pH 6.5, 44 h, cis-UCA 10 mM, CPT 2 μM, 15,000 cells per 100 μl, read-out: Inhibition of proliferation (mean percentage inhibition ± SD compared with untreated control)
Source text: as §1, §2, §3

[7] = system: K562 (chronic myelogenous leukemia); assay: Proliferation assay (CellTiter 96), K562 cells; type: cell-based, human; settings: Homo sapiens, pH 6.5, 44 h, cis-UCA 10 mM, CPT 2 μM, 15,000 cells per 100 μl, read-out: Inhibition of proliferation (mean percentage inhibition ± SD compared with untreated control)
Source text: as §1, §2, §3

[8] = system: HT-1080 (epithelial fibrosarcoma); assay: Proliferation assay (CellTiter 96), HT-1080 cells; type: cell-based, human; settings: Homo sapiens, pH 6.5, 44 h, cis-UCA 10 mM, CPT 2 μM, 15,000 cells per 100 μl, read-out: Inhibition of proliferation (mean percentage inhibition ± SD compared with untreated control)
Source text: as §1, §2, §3

[9] = system: cell lines; assay: Proliferation assay, statements on the cell lines as a group; type: cell-based, human; settings: camptothecin 2 μM; 44 h; pH 6.5 or 7.4 (FIG. 1)
Description: The cells were cultured for 44 h with or without 2 μM camptothecin (CPT) at pH 6.5 or 7.4 conditions. After a 2-h incubation with the proliferation assay reagent, the absorbance at 490 nm was recorded. Cells were cultured in a density of 15,000 cells (K562, HT-1080, HK293) or 75,000 cells (the other cells) in a volume of 150 μl.
Three cell lines were cultured with cis-UCA and/or 1 μM camptothecin at a density of […] per well (100 μl) for 44 h in pH 6.5 medium. Blank wells with all the cis-UCA concentrations but without cells were included and their absorbance subtracted from those of the corresponding test wells.
as §1, with “The K562 (chronic myelogenous leukemia) cells were purchased from American Type Culture Collection.” left out
as §3

[10] = system: A2058 human cutaneous melanoma tumours; assay: Tumour growth in SCID/SCID mice in vivo; settings: 16-day treatment, 1 μM CPT, pH 6.5
Description: All injection solutions were adjusted to pH 6.5. The data points have been normalised to unity tumour size at day 0. Data from five mice in each group is included (mean, SD).
The A2058 human cutaneous melanoma cells were cultured under normal cell culture conditions prior to injection into mice. Two million A2058 cells were injected s.c. into the neck of SCID/SCID mice (Charles River Laboratories, Germany). Tumours were allowed to develop for two weeks to the size of a small pearl before the treatments. The mice were divided into four groups of six animals, each containing three males and three females. Each tumour was first injected 50 μl of one of the test solutions (A: PBS; B: 30 mM cis-UCA; C: 1 μM CPT; D: 30 mM cis-UCA+1 μM CPT) three times a week (Mon-Wed-Fri). After day 7 from the beginning of injections, the injection volume was increased to 150 μl injected into three different sides of the tumour. Tumour length and width were measured with a caliper three times a week before each injection. Tumour planar area was calculated as length×width. The tumour growth inhibition efficiency I of the treatments was calculated according to Equation 1:
[formula] where Sr represents the normalised relative size of the tumour in the control group (A) or any of the treatment groups (T), and d0 to d16 are the (eight) measuring time points during the 16-day treatment period.
(§7) After 16 days from the first injection, all the animals were sacrificed with CO2, and the tumours were collected and fixed in formalin for further studies. In groups A, C, and D, one mouse was sacrificed before the end of the experiment because of poor development of the tumour (no measurable tumour at day 0). One animal in group B was sacrificed prematurely after it had severly scratched the tumour. Data from these animals were not included in the calculation of the tumour size results. All the removed animals were female mice. Immunohistochemical data was obtained also from the removed mice except from group B. The experiments were conducted under a protocol approved by the local ethics committee.

[11] = system: Ki67 (proliferating cells) in A2058 tumours; assay: Immunohistochemistry of tumours, Ki67 staining; type: in vivo, SCID/SCID mice; settings: tumours collected after 16 days; 30 mM cis-UCA, 1 μM CPT intratumoural
Source text: as §7
(§8) Paraffin sections of the tumours were stained with haematoxylin/eosin following standard procedures for an overall picture. Ki67 was stained to detect the amount of proliferating cells. The staining procedure for the Ki67 primary antibody (Dako, Klostrup, Denmark) at 1:50 dilution and secondary antibody (StreptABComplex/HRP Duet Mouse/Rabbit, Dako) at 1:100 dilution followed the instructions provided by the manufacturer. Two sections from each tumour was examined.

[12] = system: A2058 tumours; assay: Haematoxylin/eosin staining of tumour sections (necrosis); type: in vivo, SCID/SCID mice; settings: tumours collected after 16 days; 30 mM cis-UCA, 1 μM CPT intratumoural
Source text: as §7, §8

Structure (SMILES) | effect on the intracellular pH of neutrophils [1] | inhibition at 2 µM [2] [%] | inhibition at 2 µM [3] [%] | inhibition at 2 µM [4] [%] | inhibition at 2 µM [5] [%] | inhibition at 2 µM [6] [%] | inhibition at 2 µM [7] [%] | inhibition at 2 µM [8] [%] | anti-proliferative effect in all cell line cultures [9] | mean tumour area relative to the initial size at day 0 ([10]; intratumoural injection three times a week, 30 mM cis-UCA) | Growth suppression, female ([10]; female mice, intratumoural 30 mM cis-UCA) [%] | Growth suppression, male ([10]; male mice, intratumoural 30 mM cis-UCA) [%] | Ki67+ (number of positive tumours/total analysed) [11] | Necrosis (histological sections with haematoxylin/eosin staining) [12]
O=C(O)C=Cc1c[nH]cn1 [trans-UCA, 3-(1H-imidazol-4-yl)-2-propenoic acid, reference compound] | not trans-UCA affected the intracellular pH | – | – | – | – | – | – | – | – | – | – | – | – | –
CC[C@@]1(O)C(=O)OCc2c1cc1n(c2=O)Cc2cc3ccccc3nc2-1 [CPT, Camptothecin, reference compound] | – | 37 ± 0.4 | 81 ± 1.1 | 84 ± 3.3 | 56 ± 1 | 78 ± 1.6 | 77 ± 3.3 | 71 ± 1.7 | inhibited the proliferation in all cell line cultures and showed more efficient inhibition at pH 6.5 | about four | 90.3 | 44.7 | three out of six tumours and 3/6 | Dead cells and large necrotic areas were detected and yes
